Data taken from BigSolDB 2.1.

Cc1ccc(C)c(O)c1
Conditions	solubility (mole fraction)
in ethyl acetate, 282.85 K	0.414
in ethyl acetate, 289.95 K	0.449
in ethyl acetate, 298.45 K	0.494
in ethyl acetate, 304.35 K	0.529
in ethyl acetate, 309.95 K	0.563
in ethyl acetate, 314.75 K	0.596
in ethyl acetate, 329.05 K	0.713
in methanol, 281.05 K	0.273
in methanol, 284.75 K	0.291
in methanol, 289.15 K	0.315
in methanol, 293.75 K	0.342
in methanol, 299.45 K	0.381
in methanol, 305.85 K	0.425
in methanol, 307.25 K	0.435
in methanol, 314.25 K	0.492
in methanol, 317.25 K	0.522
in methanol, 321.15 K	0.563
in n-butanol, 281.15 K	0.308
in n-butanol, 285.65 K	0.331
in n-butanol, 289.9 K	0.354
in n-butanol, 294.45 K	0.38
in n-butanol, 298.9 K	0.408
in n-butanol, 304.95 K	0.449
in n-butanol, 311.65 K	0.501
in n-butanol, 317.25 K	0.551
in n-butanol, 322.75 K	0.608
in n-butanol, 331.2 K	0.706
in n-hexanol, 282.6 K	0.325
in n-hexanol, 288.75 K	0.356
in n-hexanol, 293.25 K	0.378
in n-hexanol, 296.65 K	0.4
in n-hexanol, 300.35 K	0.424
in n-hexanol, 310.75 K	0.498
in n-hexanol, 321.65 K	0.598
in n-hexanol, 326.55 K	0.652
in n-hexanol, 331.05 K	0.707
in n-hexanol, 335.35 K	0.764
